Data: patent publication US20240343717A1, “MICROBIOCIDAL PYRAZOLE DERIVATIVES” (SYNGENTA CROP PROTECTION AG, priority 2021, published 2024)

Legend:
[1] = test system: Blumeria graminis f. sp. tritici (Erysiphe graminis f. sp. tritici); experiment: Blumeria graminis f. sp. tritici / wheat / leaf disc preventative (powdery mildew on wheat); format: in vivo; details: foliar, wheat leaf segments, inoculated 1 day after application
How it was run: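 Wheat cv. Kanzler leaf segments on agar sprayed with formulated compound in water, inoculated 1 day later by shaking mildew-infected plants overhead. Incubated at 20° C, 60% rh, 24 h dark then 12 h light/12 h dark. Percent disease control versus untreated scored 6-8 days after application.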

[2] = test system: Phaeosphaeria nodorum (Septoria nodorum); experiment: Phaeosphaeria nodorum (Septoria nodorum) / wheat / leaf disc preventative (glume blotch); format: in vivo; details: Parastagonospora nodorum, foliar, wheat leaf segments, inoculated 2 days after application
How it was run: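 Wheat cv. Kanzler leaf segments on agar sprayed preventatively with formulated compound diluted in water, then inoculated with spore suspension 2 days after application. Incubated at 20° C, 75% rh, 12 h light/12 h dark; percent disease control versus untreated scored 5-7 days after application.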

[3] = test system: Fusarium culmorum; experiment: whole plant or invertebrate; format: in vivo; details: in Triticum aestivum, read-out: control of Fusarium culmorum
[4] = test system: Gibberella zeae (Fusarium graminearum); experiment: whole plant or invertebrate; format: in vivo; details: in Triticum aestivum, read-out: control of Gibberella zeae
[5] = test system: Fusarium culmorum; experiment: microbe, parasite or virus in culture; format: cell-based; details: read-out: control of Fusarium culmorum
[6] = test system: Mycosphaerella graminicola (Septoria tritici); experiment: Mycosphaerella graminicola (Septoria tritici) / liquid culture (Septoria blotch); format: cell-based; details: Zymoseptoria tritici, growth inhibition photometrically 4-5 days after application, read-out: control of Mycosphaerella graminicola
How it was run: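 Conidia suspended in potato dextrose broth and added to test compound supplied in DMSO in 96-well plates. Incubated at 24 °C, and growth inhibition read photometrically 4-5 days after application.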

[7] = test system: Pyrenophora teres; experiment: Pyrenophora teres / barley / leaf disc preventative (net blotch); format: in vivo; details: foliar, barley leaf segments, inoculated 2 days after application
How it was run: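 Barley cv. Hasso leaf segments on agar sprayed with formulated compound, inoculated with spores 2 days later. Incubated at 20 °C, 65% rh, 12 h light/dark; disease control versus untreated assessed 5–7 days after application.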

[8] = test system: Glomerella lagenarium (Colletotrichum lagenarium); experiment: Glomerella lagenarium (Colletotrichum lagenarium) / liquid culture (anthracnose); format: cell-based; details: Colletotrichum orbiculare, growth inhibition photometrically 3-4 days after application, read-out: control of Glomerella lagenarium
How it was run: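 Cryo-stored conidia in potato dextrose broth were added to test compound in DMSO. Plates were incubated at 24° C, and growth inhibition was read photometrically 3-4 days after application.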

[9] = test system: Alternaria solani; experiment: Alternaria solani / tomato / leaf disc (early blight); format: in vivo; details: foliar, tomato leaf disks, sprayed 2 days before inoculation, compared to untreated control
Method: Example B1: Alternaria solani/Tomato/Leaf Disc (Early Blight) Tomato leaf disks cv. Baby are placed on agar in multiwell plates (24-well format) and sprayed with the formulated test compound diluted in water. The leaf disks are inoculated with a spore suspension of the fungus 2 days after application. The inoculated leaf disks are incubated at 23° C./21° C.

[10] = test system: Botryotinia fuckeliana (Botrytis cinerea); experiment: Botryotinia fuckeliana (Botrytis cinerea) / liquid culture (gray mould); format: cell-based; details: growth inhibition photometrically 3-4 days after application, read-out: control of Botryotinia fuckeliana
How it was run: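 Conidia suspended in Vogels broth and added to compound dispensed from DMSO. Incubated at 24°C, with growth inhibition measured photometrically 3–4 days later.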

[11] = test system: Monographella nivalis (Microdochium nivale); experiment: Monographella nivalis (Microdochium nivale) / liquid culture (foot rot cereals); format: cell-based; details: growth inhibition photometrically 4-5 days after application, read-out: control of Monographella nivalis
How it was run: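 Fungal conidia mixed directly into potato dextrose broth and added to test compound delivered in DMSO. Incubated at 24° C; growth inhibition read photometrically 4-5 days after application.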

[12] = test system: Mycosphaerella arachidis (Cercospora arachidicola); experiment: Mycosphaerella arachidis (Cercospora arachidicola) / liquid culture (early leaf spot); format: cell-based; details: growth inhibition photometrically 4-5 days after application, read-out: control of Mycosphaerella arachidis
How it was run: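 Spores taken straight from cryostorage are suspended in potato dextrose broth and added to test compound in DMSO. Plates are incubated at 24° C. Growth inhibition is scored photometrically 4-5 days after application.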

[13] = test system: Sclerotinia sclerotiorum; experiment: Sclerotinia sclerotiorum / liquid culture (cottony rot); format: cell-based; details: growth inhibition photometrically 3-4 days after application, read-out: control of Sclerotinia sclerotiorum
Method: Example B15: Sclerotinia sclerotiorum/Liquid Culture (Cottony Rot) Mycelia fragments of a newly grown liquid culture of the fungus are directly mixed into nutrient broth (PDB potato dextrose broth). After placing a (DMSO) solution of test compound into a microtiter plate (96-well format) the nutrient broth containing the fungal material is added. The test plates are incubated at 24° C. and the inhibition of growth is determined photometrically 3-4 days after application.

Cn1cc(C(C)(CNC(=O)c2nnc(-c3ccc(F)cc3F)s2)c2cccc(Br)n2)cn1 (stereo not shown) [Compound P-5, N-[2-(6-bromo-2-pyridyl)-2-(1-methylpyrazol-4-yl)propyl]-5-(2,4-difluorophenyl)-1,3,4-thiadiazole-2-carboxamide]
pest or weed control at 200 ppm [1]: ≥ 80% | pest or weed control at 200 ppm [2]: ≥ 80% | pest or weed control at 200 ppm [3]: ≥ 80% | pest or weed control at 200 ppm [4]: ≥ 80% | inhibition of growth at 20 ppm [5]: ≥ 80% | inhibition of growth at 20 ppm [6]: ≥ 80% | pest or weed control at 200 ppm [7]: ≥ 80% | inhibition of growth at 20 ppm [8]: ≥ 80% | pest or weed control at 200 ppm [9]: ≥ 80% | inhibition of growth at 20 ppm [10]: ≥ 80% | inhibition of growth at 20 ppm [11]: ≥ 80% | inhibition of growth at 20 ppm [12]: ≥ 80%

Cc1cccc(C(C)(CNC(=O)c2cc(-c3ccc(F)cc3F)on2)c2cnn(C)c2)n1 (stereo not shown) [Compound P-16, 5-(2,4-difluorophenyl)-N-[2-(1-methylpyrazol-4-yl)-2-(6-methyl-2-pyridyl)propyl] isoxazole-3-carboxamide]
pest or weed control at 200 ppm [1]: ≥ 80% | inhibition of growth at 20 ppm [13]: ≥ 80% | pest or weed control at 200 ppm [3]: ≥ 80% | pest or weed control at 200 ppm [4]: ≥ 80% | inhibition of growth at 20 ppm [5]: ≥ 80% | inhibition of growth at 20 ppm [6]: ≥ 80% | pest or weed control at 200 ppm [7]: ≥ 80% | inhibition of growth at 20 ppm [8]: ≥ 80% | inhibition of growth at 20 ppm [10]: ≥ 80% | inhibition of growth at 20 ppm [11]: ≥ 80% | inhibition of growth at 20 ppm [12]: ≥ 80%

Cn1cc(C(C)(CNC(=O)c2cc(-c3ccc(F)cc3F)on2)c2cccc(Br)n2)cn1 (stereo not shown) [Compound P-24, N-[2-(6-bromo-2-pyridyl)-2-(1-methylpyrazol-4-yl)propyl]-5-(2,4-difluorophenyl) isoxazole-3-carboxamide]
pest or weed control at 200 ppm [1]: ≥ 80% | pest or weed control at 200 ppm [2]: ≥ 80% | inhibition of growth at 20 ppm [13]: ≥ 80% | pest or weed control at 200 ppm [4]: ≥ 80% | inhibition of growth at 20 ppm [5]: ≥ 80% | inhibition of growth at 20 ppm [6]: ≥ 80% | pest or weed control at 200 ppm [7]: ≥ 80% | inhibition of growth at 20 ppm [8]: ≥ 80% | melting point: 141 to 143 °C | pest or weed control at 200 ppm [9]: ≥ 80% | inhibition of growth at 20 ppm [10]: ≥ 80% | inhibition of growth at 20 ppm [11]: ≥ 80% | inhibition of growth at 20 ppm [12]: ≥ 80%

Cn1cc([C@@](C)(CNC(=O)c2cc(-c3ccc(F)cc3F)on2)c2cccc(Cl)n2)cn1 [Compound P-29, N-[(2S)-2-(6-chloro-2-pyridyl)-2-(1-methylpyrazol-4-yl)propyl]-5-(2,4-difluorophenyl) isoxazole-3-carboxamide]
pest or weed control at 200 ppm [1]: ≥ 80% | pest or weed control at 200 ppm [2]: ≥ 80% | inhibition of growth at 20 ppm [13]: ≥ 80% | pest or weed control at 200 ppm [3]: ≥ 80% | inhibition of growth at 20 ppm [5]: ≥ 80% | inhibition of growth at 20 ppm [6]: ≥ 80% | pest or weed control at 200 ppm [7]: ≥ 80% | inhibition of growth at 20 ppm [8]: ≥ 80% | pest or weed control at 200 ppm [9]: ≥ 80% | inhibition of growth at 20 ppm [10]: ≥ 80% | inhibition of growth at 20 ppm [11]: ≥ 80% | inhibition of growth at 20 ppm [12]: ≥ 80%

CCC(CNC(=O)c1cc(-c2ccc(F)cc2F)on1)(c1cnn(C)c1)c1cccc(Cl)n1 (stereo not shown) [Compound P-31, N-[2-(6-chloro-2-pyridyl)-2-(1-methylpyrazol-4-yl)butyl]-5-(2,4-difluorophenyl) isoxazole-3-carboxamide]
pest or weed control at 200 ppm [1]: ≥ 80% | pest or weed control at 200 ppm [2]: ≥ 80% | inhibition of growth at 20 ppm [13]: ≥ 80% | pest or weed control at 200 ppm [3]: ≥ 80% | inhibition of growth at 20 ppm [5]: ≥ 80% | inhibition of growth at 20 ppm [6]: ≥ 80% | pest or weed control at 200 ppm [7]: ≥ 80% | inhibition of growth at 20 ppm [8]: ≥ 80% | pest or weed control at 200 ppm [9]: ≥ 80% | inhibition of growth at 20 ppm [10]: ≥ 80% | inhibition of growth at 20 ppm [11]: ≥ 80% | inhibition of growth at 20 ppm [12]: ≥ 80%

Cn1cc([C@@](C)(CNC(=O)c2nnc(-c3ccc(F)cc3F)s2)c2cccc(Cl)n2)cn1 [Compound P-34, N-[(2S)-2-(6-chloro-2-pyridyl)-2-(1-methylpyrazol-4-yl)propyl]-5-(2,4-difluorophenyl)-1,3,4-thiadiazole-2-carboxamide]
pest or weed control at 200 ppm [1]: ≥ 80% | pest or weed control at 200 ppm [2]: ≥ 80% | inhibition of growth at 20 ppm [13]: ≥ 80% | pest or weed control at 200 ppm [3]: ≥ 80% | inhibition of growth at 20 ppm [5]: ≥ 80% | inhibition of growth at 20 ppm [6]: ≥ 80% | pest or weed control at 200 ppm [7]: ≥ 80% | inhibition of growth at 20 ppm [8]: ≥ 80% | pest or weed control at 200 ppm [9]: ≥ 80% | inhibition of growth at 20 ppm [10]: ≥ 80% | inhibition of growth at 20 ppm [11]: ≥ 80% | inhibition of growth at 20 ppm [12]: ≥ 80%

Cn1cc([C@](C)(CNC(=O)c2nnc(-c3ccc(F)cc3F)s2)c2cccc(Cl)n2)cn1 [Compound P-35, N-[(2R)-2-(6-chloro-2-pyridyl)-2-(1-methylpyrazol-4-yl)propyl]-5-(2,4-difluorophenyl)-1,3,4-thiadiazole-2-carboxamide]
pest or weed control at 200 ppm [1]: ≥ 80% | pest or weed control at 200 ppm [2]: ≥ 80% | inhibition of growth at 20 ppm [13]: ≥ 80% | pest or weed control at 200 ppm [3]: ≥ 80% | pest or weed control at 200 ppm [4]: ≥ 80% | inhibition of growth at 20 ppm [5]: ≥ 80% | inhibition of growth at 20 ppm [6]: ≥ 80% | pest or weed control at 200 ppm [7]: ≥ 80% | inhibition of growth at 20 ppm [8]: ≥ 80% | pest or weed control at 200 ppm [9]: ≥ 80% | inhibition of growth at 20 ppm [10]: ≥ 80% | inhibition of growth at 20 ppm [11]: ≥ 80% | inhibition of growth at 20 ppm [12]: ≥ 80%

COc1cc(Cl)nc([C@@](C)(CNC(=O)c2cc(-c3ccc(F)cc3F)no2)c2cnn(C)c2)c1 [Compound P-46, N-[(2R)-2-(6-chloro-4-methoxy-2-pyridyl)-2-(1-methylpyrazol-4-yl)propyl]-3-(2,4-difluorophenyl) isoxazole-5-carboxamide]
pest or weed control at 200 ppm [3]: ≥ 80% | pest or weed control at 200 ppm [4]: ≥ 80% | inhibition of growth at 20 ppm [5]: ≥ 80% | inhibition of growth at 20 ppm [6]: ≥ 80% | inhibition of growth at 20 ppm [8]: ≥ 80% | inhibition of growth at 20 ppm [10]: ≥ 80% | inhibition of growth at 20 ppm [11]: ≥ 80% | inhibition of growth at 20 ppm [12]: ≥ 80%

Cc1cccc(C(C)(CNC(=O)c2cc(-c3ccc(F)cc3F)on2)c2cnn(C)c2Cl)n1 (stereo not shown) [Compound P-73, N-[2-(5-chloro-1-methyl-pyrazol-4-yl)-2-(6-methyl-2-pyridyl)propyl]-5-(2,4-difluorophenyl) isoxazole-3-carboxamide]
pest or weed control at 200 ppm [1]: ≥ 80% | pest or weed control at 200 ppm [2]: ≥ 80% | inhibition of growth at 20 ppm [13]: ≥ 80% | pest or weed control at 200 ppm [3]: ≥ 80% | pest or weed control at 200 ppm [4]: ≥ 80% | inhibition of growth at 20 ppm [5]: ≥ 80% | inhibition of growth at 20 ppm [6]: ≥ 80% | pest or weed control at 200 ppm [7]: ≥ 80% | inhibition of growth at 20 ppm [8]: ≥ 80% | pest or weed control at 200 ppm [9]: ≥ 80% | inhibition of growth at 20 ppm [10]: ≥ 80% | inhibition of growth at 20 ppm [11]: ≥ 80% | inhibition of growth at 20 ppm [12]: ≥ 80%

Cc1cccc(C(C)(CNC(=O)c2nnc(-c3ccc(F)cc3F)s2)c2cnn(C)c2Cl)n1 (stereo not shown) [Compound P-82, N-[2-(5-chloro-1-methyl-pyrazol-4-yl)-2-(6-methyl-2-pyridyl)propyl]-5-(2,4-difluorophenyl)-1,3,4-thiadiazole-2-carboxamide]
pest or weed control at 200 ppm [1]: ≥ 80% | pest or weed control at 200 ppm [2]: ≥ 80% | inhibition of growth at 20 ppm [13]: ≥ 80% | pest or weed control at 200 ppm [4]: ≥ 80% | inhibition of growth at 20 ppm [5]: ≥ 80% | inhibition of growth at 20 ppm [6]: ≥ 80% | pest or weed control at 200 ppm [7]: ≥ 80% | inhibition of growth at 20 ppm [8]: ≥ 80% | pest or weed control at 200 ppm [9]: ≥ 80% | inhibition of growth at 20 ppm [10]: ≥ 80% | inhibition of growth at 20 ppm [11]: ≥ 80% | inhibition of growth at 20 ppm [12]: ≥ 80%
